In paper PMC12396291, “DNA-encoded library screening uncovers potent DNMT2 inhibitors targeting a cryptic allosteric binding site” (iScience, 2025):
“Also recorded” adds a separate entry of the source.

Columns and labels:
DNMT2 [1] = target: T1, DNMT2 (Homo sapiens, UniProt O14717); test: Fluorescence polarization (FP) assay with probe 6; format: binding
T1 construct: Recombinant human DNMT2 (full-length); His-tag; made in house; host or cells: E. coli
T1 sequence (O14717 1-391): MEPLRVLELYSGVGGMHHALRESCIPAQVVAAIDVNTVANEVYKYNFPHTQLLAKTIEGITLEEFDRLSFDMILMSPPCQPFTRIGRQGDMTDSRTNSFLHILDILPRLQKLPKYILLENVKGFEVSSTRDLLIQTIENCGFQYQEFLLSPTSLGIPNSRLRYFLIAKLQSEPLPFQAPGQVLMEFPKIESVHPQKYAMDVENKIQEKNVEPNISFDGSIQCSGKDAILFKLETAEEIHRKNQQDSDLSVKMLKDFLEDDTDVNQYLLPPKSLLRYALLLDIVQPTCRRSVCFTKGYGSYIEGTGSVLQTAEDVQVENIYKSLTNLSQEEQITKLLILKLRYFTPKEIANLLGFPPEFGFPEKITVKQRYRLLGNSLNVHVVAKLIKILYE
Protocol: (§1) Fluorescence polarization (FP) measurements with RNA MTases and small-molecule fluorescent tracers were conducted in black Greiner 96-well half-area plates using a Tecan Spark 10M plate reader as described previously.[44] The reader was equipped with polarization filters coupled to a monochromator setup (λex = 480 nm, λem = 530 nm). For selectivity screening, reaction mixtures contained varying concentrations of recombinant enzyme (DNMT1, DNMT2, DNMT3A/3L, NSUN2, NSUN3, or NSUN6; preparation see below) and 10 nM DEL hit-derived probe 6 in MST buffer. For displacement experiments, 100 μM SAH or 10 μM tRNA^Asp were added from buffered stock solutions to the DNMT2-containing mixtures. All measurements were performed as triplicates. Polarization values (in mP) were calculated from polarization-specific parallel and orthogonal fluorescence intensities according to the Tecan in-built calculation routine. KD-values were calculated and plotted in GraphPad Prism 8.0.1.

DNMT2 [2] = target: T1, DNMT2; test: MST displacement assay with fluorescent FTAD probe; format: binding; set-up: Fnorm (MST screening): unit not given here; conditions: for Fnorm (% displ.): FTAD displacement / Fnorm (MST screening): ligand 100 μM, FTAD probe
Protocol: Screening for ligand binding and evaluation of dose-response affinity profiles was performed via microscale thermophoresis (MST) as described previously.[42] The measurements were conducted with a Nanotemper Technologies Monolith NT.115 device. All samples were measured in Monolith standard capillaries at 25 °C. The acquisition mode was set to “Nano-Blue” with an excitation power of 30% and a medium MST power, while the system was controlled using the software MO.Control (version 1.6.1) and for evaluation MO.Affinity Analysis (version 2.3) was used. The samples contained 2 μM DNMT2, 100 nM FTAD (5-FAM-triazolyl-adenosyl-Dab) probe, and 1.3% DMSO in MST buffer (50 mM HEPES, 150 mM NaCl, 1 mM dithiothreitol (DTT), 0.1% PEG-8000, 0.05% polysorbate-20, pH 7.4).[42] All compounds were employed at a final concentration of 100 μM for the initial ligand screening.

[3] = Parallel artificial membrane permeation assay (PAMPA); format: in vitro ADME; conditions: 7 h incubation, duplicates
Protocol: To determine the passive permeability of selected DNMT2 ligands, a parallel artificial membrane permeation assay (PAMPA) was performed as described previously.[68] The experiment was performed in duplicates with Sigma-Aldrich MAIPNTR10 donor plates with 5 μL of an artificial membrane (1% w/v L-α-phosphatidylcholine in n-dodecane) per well. After incubation for 7 h, the acceptor solutions were evaluated by LC/MS (HP Agilent 1100 Series). The peak areas in the UV chromatogram (λ = 210 nm) were used to calculate the areas under the curve (AUCs).

DNMT2 [4] = target: T1, DNMT2; test: MST with DEL hit-derived fluorescent tracers 6-8, DNMT2 varied; conditions: probe 100 nM instead of FTAD, read-out: probe binding affinity (MST, apparent KD)
DNMT3A/3L = target: T2, DNMT3A/3L (UniProt Q9CWR8+Q9Y6K1); test: FP selectivity assay with probe 6; format: binding, human; conditions: enzyme concentrations up to 20 μM
T2 construct: made in house; host or cells: E. coli
Protocol: as §1

NSUN6 = target: T3, NSUN6 (Homo sapiens, UniProt Q8TEA1); test: FP selectivity assay with probe 6; format: binding; conditions: enzyme concentrations up to 20 μM
T3 construct: made in house; host or cells: E. coli
T3 sequence (Q8TEA1 1-469): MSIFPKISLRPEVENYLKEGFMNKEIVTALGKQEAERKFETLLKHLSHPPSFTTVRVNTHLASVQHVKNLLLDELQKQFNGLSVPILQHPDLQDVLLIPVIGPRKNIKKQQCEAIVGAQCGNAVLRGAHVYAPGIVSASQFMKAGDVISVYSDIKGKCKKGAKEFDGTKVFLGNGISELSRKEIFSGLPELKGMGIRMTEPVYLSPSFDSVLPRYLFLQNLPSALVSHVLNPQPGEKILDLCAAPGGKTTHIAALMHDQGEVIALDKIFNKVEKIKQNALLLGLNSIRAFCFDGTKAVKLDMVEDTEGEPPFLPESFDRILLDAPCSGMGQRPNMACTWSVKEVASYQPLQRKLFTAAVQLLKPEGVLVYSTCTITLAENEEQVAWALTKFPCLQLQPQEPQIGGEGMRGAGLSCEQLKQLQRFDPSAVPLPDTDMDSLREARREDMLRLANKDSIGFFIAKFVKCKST
Protocol: as §1

NSUN2 = target: T4, NSUN2 (Homo sapiens, UniProt Q08J23); test: FP selectivity assay with probe 6; format: binding; conditions: enzyme concentrations up to 20 μM
T4 construct: made in house; host or cells: E. coli
Protocol: as §1

DNMT1 = target: T5, DNMT1 (Homo sapiens, UniProt P26358); test: FP selectivity assay with probe 6; format: binding; conditions: enzyme concentrations up to 20 μM
T5 construct: purchased ActiveMotif 31404
Protocol: as §1

NSUN3 = target: T6, NSUN3 (Homo sapiens, UniProt Q9H649); test: FP selectivity assay with probe 6; format: binding; conditions: enzyme concentrations up to 20 μM
T6 construct: made in house
T6 sequence (Q9H649 1-340): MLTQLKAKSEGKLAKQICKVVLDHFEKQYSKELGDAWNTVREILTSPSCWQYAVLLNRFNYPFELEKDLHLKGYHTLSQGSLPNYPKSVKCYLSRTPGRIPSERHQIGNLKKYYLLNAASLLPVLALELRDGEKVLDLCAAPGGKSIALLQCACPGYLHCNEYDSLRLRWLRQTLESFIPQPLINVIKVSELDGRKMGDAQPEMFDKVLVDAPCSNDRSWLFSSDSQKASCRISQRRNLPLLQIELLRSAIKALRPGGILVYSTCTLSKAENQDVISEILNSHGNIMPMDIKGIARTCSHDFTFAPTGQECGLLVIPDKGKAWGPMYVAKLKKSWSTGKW
Protocol: as §1

[5] = system: tRNA modifications (m^5C) in MOLM-13 cells; test: LC-MS/MS tRNA modification analysis of treated cells; format: cell-based, human; conditions: 72 h; for m^5C reduction in tRNA: relative to DMSO
[6] = system: MOLM-13, Huh-7 and MDA-MB-231 cells; test: Cell viability assay, pre-cultivation with compound then doxorubicin; format: cell-based, human; conditions: for susceptibility to subsequent doxorubicin treatment (synergy): compound 50 μM, then doxorubicin
Protocol: Cell viability assays were conducted with MOLM-13 cells, Huh-7, MDA-MB-231, HEK293, and HCT MTase mutant cell lines (WT, knock-down DNMT2, and knock-down NSUN2) to investigate the DNMT2 inhibiting compounds’ cellular effect. Cells were cultured according to standard protocols: MOLM-13 (RPMI, 10% FBS, 1x Penicillin/Streptomycin, 37 °C, 5% CO2), Huh-7/MDA-MB-231/HEK293 (DMEM, 10% FBS, 1x Penicillin/Streptomycin, 37 °C, 5% CO2) and HCT (McCoys’s 5A Medium, 10% FBS, L-Glutamine, 1x Penicillin/Streptomycin, 37 °C, 5% CO2). Cell viability was assessed using Promega Cell Titer Glo assay kit (MOLM-13, Huh-7, MDA-MB-231, HEK293) or Lonza ViaLight Plus Cell Proliferation and Cytotoxicity BioAssay Kit (HCT cell lines). […] Then, the cell titer reagent was added to each well according to the manufacturer’s protocols, and luminescence was measured using a Tecan Spark 10M plate reader (MOLM-13, Huh-7, MDA-MB-231, HEK293) or Molecular Devices FlexStation (HCT cell lines).

DNMT2 [7] = target: T1, DNMT2; test: ^3H-based methyltransferase enzyme activity assay (^3H-SAM incorporation into tRNA^Asp); format: biochemical
Protocol: Enzymatic DNMT2 inhibition assays were carried out in 100 mM Tris-HCl, pH 8.0, 100 mM NH4OAc, 0.1 mM EDTA, 10 mM MgCl2, and 10 mM DTT as described previously.[3]^,[4] First, the tRNA^Asp substrate was heated to 75 °C for 5 min and cooled down to room temperature (RT) before it was added to the reaction mixture to a final concentration of 5 μM. The reaction mixture contained 250 nM DNMT2 and the ligand compounds at variable concentrations (5% DMSO). Enzymatic reactions were started by the addition of 0.9 μM SAM as a mixture of ^3H-SAM (Hartmann Analytics) resp. cold SAM (NEB) to a final activity of 0.025 μCi μL^−1. Enzyme assays were carried out for 30 min at 37 °C. As a negative control served the reaction mixture without DNMT2 and as a positive control the reaction mixture without test compound. After 30 min, aliquots of 8 μL were taken from the reaction mixture and spotted on Whatman glass microfiber filters (GF/C, 25 mm). The RNA was precipitated on the filters with 5% ice-cold TCA for 15 min. […] Scintillation was measured with a scintillation counter (TriCarb Liquid Scintillation Analyzer 4810 TR; measurement time of 1 min). For IC50-value determination, compounds were analyzed at a minimum of six different concentrations in triplicates. IC50-values were calculated, evaluated, and plotted in GraphPad Prism 8.0.1.

DNMT2 [8] = target: T1, DNMT2; test: Isothermal titration calorimetry (ITC), direct titration; format: binding; conditions: direct titration at 25 °C; n.b. = no enthalpy signal observable
Protocol: The DNMT2 protein was purified via size exclusion chromatography eluting in isothermal titration calorimetry (ITC) buffer (50 mM sodium phosphate pH 8.0, 300 mM NaCl, 1 mM EDTA, 2 mM β-mercaptoethanol, 0.1% polysorbate-20) and directly used for measurements.[3] All compounds were dissolved in DMSO to a concentration of 5 mM and were then diluted in ITC buffer to a final concentration of 500 μM. DNMT2 was diluted to a final concentration of 50 μM with 10% DMSO to match the ligand stocks' DMSO concentration. For the ITC measurements, a MicroCal PEAQ-ITC Automated workstation (Malvern Panalytical) with a 200 μL Hastelloy cell and an injection syringe volume of 40 μL was used. All experiments were performed in triplicates at 25 °C unless otherwise noted. For each measurement, 19 compound injections (2 μL each) with an injection speed of 0.5 μL/s were added to the reaction cell containing DNMT2. The spacing time between sequential injections was 300 s, and the stirring speed was set to 750 rpm with a reference power of 42 μW. As control experiments, ligands were titrated into ITC buffer. Data analysis and fitting were carried out using the MicroCal PEAQ-ITC Analysis Software 1.21 and plotted in GraphPad Prism 8.0.1.

T5 sequence (P26358 whole entry): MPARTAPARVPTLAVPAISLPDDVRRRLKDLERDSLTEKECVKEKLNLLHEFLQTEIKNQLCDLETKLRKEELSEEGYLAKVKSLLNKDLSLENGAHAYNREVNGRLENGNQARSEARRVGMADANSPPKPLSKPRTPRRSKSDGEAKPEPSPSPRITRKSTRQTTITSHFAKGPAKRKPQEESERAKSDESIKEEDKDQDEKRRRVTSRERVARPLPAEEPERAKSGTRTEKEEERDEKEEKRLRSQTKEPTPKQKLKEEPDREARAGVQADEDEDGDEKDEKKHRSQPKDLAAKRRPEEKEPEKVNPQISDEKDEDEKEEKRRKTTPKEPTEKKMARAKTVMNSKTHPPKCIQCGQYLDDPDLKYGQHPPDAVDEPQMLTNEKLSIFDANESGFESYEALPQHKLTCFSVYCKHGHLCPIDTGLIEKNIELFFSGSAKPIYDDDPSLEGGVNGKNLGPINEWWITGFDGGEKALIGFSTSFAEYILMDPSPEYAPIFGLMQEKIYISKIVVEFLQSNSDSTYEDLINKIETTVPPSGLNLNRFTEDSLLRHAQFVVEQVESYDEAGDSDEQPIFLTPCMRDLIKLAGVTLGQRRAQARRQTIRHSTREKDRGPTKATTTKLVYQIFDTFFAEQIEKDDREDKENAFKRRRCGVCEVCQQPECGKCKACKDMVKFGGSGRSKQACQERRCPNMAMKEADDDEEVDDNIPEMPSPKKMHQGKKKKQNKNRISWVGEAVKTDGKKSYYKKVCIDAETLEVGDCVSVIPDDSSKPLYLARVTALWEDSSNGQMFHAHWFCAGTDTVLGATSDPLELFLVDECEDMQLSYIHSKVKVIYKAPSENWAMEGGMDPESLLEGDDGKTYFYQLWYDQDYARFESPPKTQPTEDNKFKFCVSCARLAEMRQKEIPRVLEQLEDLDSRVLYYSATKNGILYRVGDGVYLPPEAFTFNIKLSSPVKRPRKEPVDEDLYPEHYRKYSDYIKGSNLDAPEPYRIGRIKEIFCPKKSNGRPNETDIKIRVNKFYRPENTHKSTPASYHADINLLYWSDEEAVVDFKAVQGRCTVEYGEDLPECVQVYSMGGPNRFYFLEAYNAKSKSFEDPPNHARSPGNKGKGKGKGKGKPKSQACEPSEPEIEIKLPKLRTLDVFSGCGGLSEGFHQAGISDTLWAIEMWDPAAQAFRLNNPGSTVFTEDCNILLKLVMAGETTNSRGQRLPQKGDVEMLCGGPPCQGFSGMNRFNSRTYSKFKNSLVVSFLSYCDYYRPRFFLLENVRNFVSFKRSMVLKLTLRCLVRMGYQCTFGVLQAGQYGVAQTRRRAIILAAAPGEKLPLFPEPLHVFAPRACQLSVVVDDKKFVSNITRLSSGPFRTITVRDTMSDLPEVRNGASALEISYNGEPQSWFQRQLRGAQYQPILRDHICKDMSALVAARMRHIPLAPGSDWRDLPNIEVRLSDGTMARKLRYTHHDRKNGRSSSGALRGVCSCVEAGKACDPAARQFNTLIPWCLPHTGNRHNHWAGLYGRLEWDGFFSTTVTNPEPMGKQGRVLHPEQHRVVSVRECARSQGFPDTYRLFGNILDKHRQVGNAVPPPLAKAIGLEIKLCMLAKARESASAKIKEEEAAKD
T4 sequence (Q08J23 whole entry): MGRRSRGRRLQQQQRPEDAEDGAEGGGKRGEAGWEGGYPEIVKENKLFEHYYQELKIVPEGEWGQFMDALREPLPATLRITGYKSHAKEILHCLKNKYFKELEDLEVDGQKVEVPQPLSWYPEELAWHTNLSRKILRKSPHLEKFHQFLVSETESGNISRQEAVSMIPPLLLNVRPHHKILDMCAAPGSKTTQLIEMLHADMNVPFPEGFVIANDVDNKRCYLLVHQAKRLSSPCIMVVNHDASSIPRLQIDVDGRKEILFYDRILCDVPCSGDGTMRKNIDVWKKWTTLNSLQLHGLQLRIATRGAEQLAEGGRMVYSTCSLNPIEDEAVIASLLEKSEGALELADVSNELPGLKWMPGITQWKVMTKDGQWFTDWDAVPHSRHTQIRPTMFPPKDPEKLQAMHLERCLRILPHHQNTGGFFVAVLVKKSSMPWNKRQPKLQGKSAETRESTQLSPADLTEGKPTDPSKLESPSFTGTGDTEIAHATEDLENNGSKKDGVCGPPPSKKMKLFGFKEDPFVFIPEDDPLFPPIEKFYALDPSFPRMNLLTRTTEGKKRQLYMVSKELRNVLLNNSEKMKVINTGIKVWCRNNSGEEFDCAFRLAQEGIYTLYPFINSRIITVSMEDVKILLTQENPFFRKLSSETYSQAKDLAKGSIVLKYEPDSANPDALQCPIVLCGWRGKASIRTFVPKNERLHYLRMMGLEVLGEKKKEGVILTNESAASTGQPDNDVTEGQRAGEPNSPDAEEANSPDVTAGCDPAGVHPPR

Nc1ncnc2c1ncn2[C@@H]1O[C@H](CSCC[C@H](N)C(=O)O)[C@@H](O)[C@H]1O [SAH, S-adenosylhomocysteine, reference compound]
displacement of probe 6 from DNMT2 (FP) (DNMT2 [1]; SAH 100 μM or tRNA^Asp 10 μM added to DNMT2 2 μM): able to displace probe 6

CCc1ccc(C(=O)NCC2(C(=O)N[C@@H](CC(=O)NCC(N)=O)Cc3c[nH]c4ccccc34)CC2)cc1 [Compound 10]
Fnorm (% displ.): FTAD displacement (DNMT2 [2]): 40%
Fnorm (MST screening) (DNMT2 [2]): 903.3
Papp (PAMPA) [3]: failed to pass through the artificial membrane; also recorded: below detection limit

Cc1cccc(N(C)c2nc(N[C@H](C(=O)NCCCCCCNC(=O)CCCCC[N+]3=C(/C=C/C=C/C=C4/N(C)c5ccccc5C4(C)C)C(C)(C)c4ccccc43)[C@@H](C)OC(C)(C)C)nc(N3CCN(c4c(C)cccc4C)CC3)n2)c1 [Compound 7]
Kd (DNMT2 [4]): 1360 nM

CCc1ccc(C(=O)NCC2(C(=O)N[C@H](CC(=O)NCC(=O)NCCCCCCNC(=O)c3ccc(-c4c5ccc(=N)c(S(=O)(=O)O)c-5oc5c(S(=O)(=O)O)c(N)ccc45)c(C(=O)O)c3)Cc3ccccc3)CC2)cc1 [Compound 6]
probe binding to DNMT3A/3L (FP) (DNMT3A/3L): does not bind
fluorescence polarization of probe-DNMT2 complex (DNMT2 [1]; probe 6 with DNMT2 (enzyme-free buffer 5 mP)): 220 mP
probe binding to NSUN6 (FP) (NSUN6): does not bind
probe binding to NSUN2 (FP) (NSUN2): does not bind
probe binding to DNMT1 (FP) (DNMT1): does not bind
probe binding to NSUN3 (FP) (NSUN3): does not bind
Kd (DNMT2 [4]): 1650 nM

CCc1ccc(C(=O)NCC2(C(=O)N[C@H](CC(=O)NCC(=O)NCCCCCCNC(=O)c3ccc(-c4c5ccc(=[N+](C)C)cc-5oc5cc(N(C)C)ccc45)c(C(=O)O)c3)Cc3c[nH]c4ccccc34)CC2)cc1 [Compound 8]
Kd (DNMT2 [4]): 700 nM

CCc1ccc(C(=O)NCC2(C(=O)NC(CC(=O)NCC(N)=O)Cc3ccc(Cl)cc3)CC2)cc1 (stereo not shown) [Compound 16]
change in RNA modifications ([5]; MOLM-13, 5 μM): too low to stimulate any significant change in RNA modifications
changes of other (non-m^5C) tRNA modifications ([5]; MOLM-13, 50 μM): only minor other modification changes were observed
m^5C reduction in tRNA ([5]; MOLM-13, 50 μM): ~25%
cellular viability after cultivation with compound alone ([6]; 50 μM, two passages of three days each): no observable reduction in cellular viability
susceptibility to subsequent doxorubicin treatment (synergy) [6]: made the cells more susceptible to the subsequent treatment with doxorubicin
Papp (PAMPA) [3]: ~ 0.30 10^−6 cm/s
Papp at 7 h ([3]; PAMPA): 0.3 ×10⁻⁶ cm/s

CNC(=O)C(NC(=O)C(Cc1c[nH]c2cc(Cl)ccc12)NC(=O)C(CO)NCC(C)Cc1ccc2c(c1)OCO2)C1CCCCC1 (stereo not shown) [Compound 4]
IC50 (DNMT2 [7]): 44400 ± 12900 nM
FTAD displacement in the MST assay (DNMT2 [2]; DEL hits, result in words): did not lead to FTAD displacement
Kd (DNMT2 [2]; FTAD probe 100 nM, 2 μM DNMT2, n.b. = no thermophoresis shift observable): 105000 ± 9000 nM
ITC (KD) (DNMT2 [8]): n.b.

CCc1ccc(C(=O)NCC2(C(=O)N[C@H](Cc3c[nH]c4ccccc34)C(=O)NCC(N)=O)CC2)cc1 [Compound 30]
Fnorm (% displ.): FTAD displacement (DNMT2 [2]): 5%
Fnorm (MST screening) (DNMT2 [2]): 861.5
ITC (KD) (DNMT2 [8]): n.b.

CCc1ccc(C(=O)NCC2(C(=O)NC(CC(=O)NCC(N)=O)Cc3ccc(C#N)cc3)CC2)cc1 (stereo not shown) [Compound 34]
m^5C reduction in tRNA ([5]; MOLM-13, 50 μM): no reduction of m^5C in tRNA
Fnorm (% displ.): FTAD displacement (DNMT2 [2]): 13%
Fnorm (MST screening) (DNMT2 [2]): 879.4
susceptibility to subsequent doxorubicin treatment (synergy) [6]: did not lead to a synergistic reduction in viability
